Experimental data reported in US5234936A, “Pyrimidocycloalkanes as a II antagonists” (American Home Products Corporation, priority 1991, dated 1993).

System: A II-infused rat
Assay: antihypertensive action in A II-infused rat model
Assay type: in vivo
Procedure: In accordance with their ability to antagonize angiotensin II, the compounds of this invention show antihypertensive action in the following A II-infused rat model. Rats are anesthetized with Dial-Urethane (0.60 mL/kg, ip) and the trachea cannulated with PE 240. Either one femoral artery and both femoral veins or the carotid artery and the corresponding jugular vein are cannulated with PE 50. If the jugular vein is cannulated, two cannulas are placed in the one vein. The initial portion of the duodenum (just distal to the stomach) is cannulated with PE 50 via a small midline incision. Arterial pressure and heart rate are measured from the arterial cannula. Ten to 15 min are allowed following surgery for stabilization of arterial pressure. Ganglion blockade is then produced by intravenous administration of mecamylamine at 3 mg/kg (1 mL/kg of a 3 mg/mL solution). Ganglion blockade causes a fall in arterial pressure of about 50 mmHg. Mecamylamine is given every 90 min throughout the remainder of the experiment. An A II infusion is then begun into the other venous cannula at 0.25 μg/kg/min (at 9.6 μL/min). The A II infusion returns arterial pressure to or slightly above the control level. Once arterial pressure has stabilized with the A II infusion, baseline values for means arterial pressure (MAP) and heart rate are taken. […]

Structure (SMILES) | fall in arterial pressure on ganglion blockade (mecamylamine 3 mg/kg intravenous, before A II infusion, anesthetized rats) | average lowering of the A II dependent blood pressure (3 mg/kg id (intraduodenal), one half hour postadministration, ganglion-blocked A II-infused rats)
CNC1(C)C2CCC(C2)C1(C)C (centres unmarked) [mecamylamine] | about 50 mmHg | –
FC(F)(F)c1nc2c(c(NCc3ccc(-c4ccccc4-c4nnn[nH]4)cc3)n1)CCCCC2.O.[K] [Example 5, 6,7,8,9-tetrahydro-N-[[2'-(1H-tetrazol-5-yl)[1,1'-biphenyl]-4-yl]methyl]-2-(trifluoromethyl)-5H-cycloheptapyrimidin-4-amine potassium salt hydrate] | – | 45%
